Data from patent US11752132B2, “Materials and methods for improving gastrointestinal function” (University of Florida Research Foundation, Incorporated, priority 2010, dated 2023).
Values joined by “and” are separate entries in the source; they are usually repeats but may differ in a detail not shown here. Equal values may be shown once.

Columns and labels:
[1] = test system: jejunum (HCO3^− secretion); experiment: pH stat measurement of HCO3^− secretion in stripped jejunal sheets; format: cell-based, mice; settings: for forskolin-stimulated HCO3^− secretion after blocker: 0 Gy + forskolin, blocker on luminal side (100 μM glibenclamide; NPPB)
Description: A Bi-burette TIM 856 (Radiometer Analytical SAS, Villeurbanne, France) was used to measure HCO3^− secretion in stripped jejunal sheets (Vidyasagar et al. 2005; Vidyasagar et al. 2004; Zhang et al. 2007). Automated pumps maintained a constant pH for luminal solution through the addition of 0.01 μl of 0.025 M sulfuric acid (H2SO4). Standard-to-stat pH calibration was established by adding a known quantity of H2SO4 to a weak buffering solution, which contains an increasing concentration of HCO3^− to produce a linear titration curve.
Jejunal tissues were exposed to a buffered solution on the bath side (serosal side), while the luminal side was exposed to an HCO3^− free, low-buffered solution (0.1-mM HEPES (4-(2-hydroxyethyl)-1-piperazineethanesulfonic acid) buffer, pH 7.4). The HCO3^− secretion was equivalent to the amount of acid added to the luminal solution to maintain the pH at 7.4 (or the stat pH). All experiments were performed under voltage-clamp conditions. HCO3^−-free solution was gassed with 100% O2 and HCO3^−-containing solution was gassed with 95% O2 and 5% CO2. The HCO3^− secretion was expressed as μeq h^−1·cm^−2 (Vidyasagar et al. 2005; Vidyasagar et al. 2004; Zhang et al. 2007).
After the tissue was mounted, HCO3^− secretions were initially present in the absence of bath HCO3^−, but rapidly fell towards 0 within 20-30 minutes. If bath HCO3^− was not present during the titration, the HCO3^− secretion remained close to 0. […] When inhibitors were added to the mucosal solution, the pH was adjusted and allowed to equilibrate for 30 minutes, until a steady rate of HCO3^− secretion was observed. When the inhibitor was added to the bath side, the tissue was also equilibrated for 30 minutes to achieve a steady rate of HCO3^− secretion (see Table 3).
All experiments were performed during the initial 1-hour steady-state period. 1 tissue from each animal was used for each experiment; only 1 experimental condition was studied with each tissue sample. All experiments were repeated for at least 4 times.

[2] = test system: mice with injury to small intestine mucosa; experiment: Oral administration of candidate nutrients in radiation, chemotherapy and Crohn's disease models; settings: for survival: oral feeding of an irradiated subject; for effect of oral administration on small intestine healing, paracellular conductance, electrolyte absorption, survival: radiation, chemotherapy and Crohn's disease models, each amino acid
Description: In a Crohn's disease model, mice are injected with anti-CD3 mAb (acute inflammatory model to mimic conditions of Crohn's disease).
The alterations of absorptive capacity of nutrients are determined using disease models with injury to small intestine mucosa, i.e., the radiation model, chemotherapy model, and the Crohn's disease model. Specifically, a candidate nutrient is orally administered to control mice and mice that received irradiation, chemotherapy, and anti-CD3 mAb, respectively. In addition, compositions containing various combinations of the candidate nutrients are orally administered.
To determine the absorptive capacity of each nutrient, bioelectric measurements are performed using an Ussing chamber. The measurements include: a) the sodium coupled-amino acid current (ISC) and changes in conductance, b) changes in saturation kinetics of each nutrient and changes in the ISC following the administration of each nutrient; and c) the electrolyte absorption studies using isotope flux studies in the presence and absence of the specific candidate nutrient.

small intestine mucosa = experiment: Ussing chamber isotope flux studies, unidirectional and net flux of Na^+ and Cl^−; format: in vitro ADME, mice; set-up: key to Na Flux Jms / Na Flux Jsm / Na Flux Jnet: fluxes in μmol·h^−1·cm^−2
Description: (§1) Following exsanguinations, jejunal segment was obtained by excluding the distal 12 cm of small intestine adjacent to the caecum. This segment was washed and flushed in ice-cold Ringer's solution before the mucosa was stripped from the underlying muscular layers (Zhang, Ameen et al. 2007). The mucosa was mounted between the 2 halves of an Ussing-type Lucite chamber with an area of 0.30 cm^2 (P2304, Physiologic instruments, San Diego, Calif. 92128 USA), and electrical parameters were recorded using a voltage/current clamp device (VCC MC-8, Physiologic instruments, San Diego, Calif. 92128 USA) (Vidyasagar et al. 2005; Vidyasagar et al. 2004; Zhang et al. 2007; Vidyasagar and Ramakrishna 2002).
Irradiation decreases Jms in a dose-dependent manner, and results in decreased net Na^+ absorption (JNetNa). Jsm far exceeds Jms at doses 7 and 9 Gy, causing net secretion. In addition, mice stool samples became loose or poorly formed at high dose irradiation, further evidencing decreased absorption and increased secretion of electrolytes. […] Decrease in Cl^− absorption was due to decrease in JmsCl^−.
In this Example, isotope (^22Na and ^36Cl) substitution studies are performed to determine the basal Na^+ and Cl^− movement. Briefly, ^22Na and ^36Cl are added either to the mucosal or to the serosal side. 0.5 ml samples are collected from the cold side at the end of every 30 minutes. Unidirectional fluxes are calculated using standard formula, and expressed as μmol·h^−1·cm^−2. Net flux (JNet) is calculated as the difference between Jms and Jsm fluxes across tissue pairs. Experiments are performed under short-circuit conditions.

[3] = test system: jejunal mucosa (net anion secretion); experiment: Ussing chamber transepithelial short circuit current (Isc) with transport blockers/forskolin; format: cell-based, mice; settings: 0-Gy mice; 10 μM NPPB, 100 μM glibenclamide
Text: To study active HCO3^− secretion, 8-week-old, non-irradiated and irradiated, male BALB/c mice were obtained from the National Cancer Institute. Mice were randomly divided into groups, and abdomens were irradiated according to the gastrointestinal acute radiation syndrome (GI ARS) model with a Shepherd Mark-I, using a ^137Cs source delivering γ-irradiation at 1.84 Gy/min. Radiation was given as a single fraction. The GI ARS model will achieve maximum radiation damage to intestinal tissues, and mimics intestinal injury during radiation therapy of pelvic or abdominal tumors.
Changes in short circuit current (Isc), both as a function of time following radiation and with increasing doses of radiation, were examined to determine the earliest time and the minimum radiation dose required to produce significant changes in Isc. These studies were approved by the University of Rochester Animal Care and Use Committee.
as §1
To determine the contribution of NKCC1 to basal Isc, 100 μM bumetanide (Sigma-Aldrich Co., USA) was added to the bath solution.
To determine whether the bumetanide-insensitive portion of Isc occurs via an apical membrane anion channel, a non-specific anion channel blocker, 5-nitro-2-(3-phenylpropylamino)-benzoic acid (Sigma-Aldrich Co., USA) (10 μM NPPB), and a specific cystic fibrosis transmembrane conductance regulator (CFTR) blocker (100 μM glibenclamide, Sigma-Aldrich Co., USA) were applied.

[4] = 3 Gy, blocker in lumen solution / mucosal addition (100 μM DIDS or glibenclamide; NPPB)

CS(=O)(=O)c1cc(C(=O)NC(=N)N)ccc1N1CCCCC1.Cl [HOE694, 3-methylsulphonyl-4-piperidinobenzoyl, guanidine hydrochloride]
cAMP-stimulated HCO3^− secretion after HOE694 ([1]; 1 mM HOE694 on bath side, 8.4±0.4 without): 7.2±0.9 μeq·h^−1·cm^−2

N[C@@H](CC(=O)O)C(=O)O [aspartic acid]
survival [2]: prolongs survival
effect of oral administration on small intestine healing, paracellular conductance, electrolyte absorption, survival [2]: improve small intestine healing, reduces paracellular conductance (thereby improving small intestine mucosal barrier mechanism), increases absorption of electrolytes, and/or improves survival in animals

NC(=O)C[C@H](N)C(=O)O [asparagine]
survival [2]: prolongs survival
effect of oral administration on small intestine healing, paracellular conductance, electrolyte absorption, survival [2]: improve small intestine healing, reduces paracellular conductance (thereby improving small intestine mucosal barrier mechanism), increases absorption of electrolytes, and/or improves survival in animals

[Na+] [Na^+]
Na Flux Jms (small intestine mucosa; IR 0 Gy): 16.4 ± 0.9
Na Flux Jnet (small intestine mucosa; IR 0 Gy): 9.8 ± 0.8
Na Flux Jsm (small intestine mucosa; IR 0 Gy): 7.1 ± 0.8
Na Flux Jms (small intestine mucosa; IR 1 Gy): 15.6 ± 1
Na Flux Jnet (small intestine mucosa; IR 1 Gy): 8.6 ± 0.9
Na Flux Jsm (small intestine mucosa; IR 1 Gy): 7.1 ± 1.1
Na Flux Jms (small intestine mucosa; IR 3 Gy): 6.8 ± 0.7
Na Flux Jnet (small intestine mucosa; IR 3 Gy): 2.6 ± 0.5
Na Flux Jsm (small intestine mucosa; IR 3 Gy): 3.5 ± 0.3
Na Flux Jms (small intestine mucosa; IR 5 Gy): 5.2 ± 0.6
Na Flux Jnet (small intestine mucosa; IR 5 Gy): 0.4 ± 0.2
Na Flux Jsm (small intestine mucosa; IR 5 Gy): 4.8 ± 0.4
Na Flux Jms (small intestine mucosa; IR 7 Gy): 4.8 ± 0.4
Na Flux Jnet (small intestine mucosa; IR 7 Gy): −0.6 ± 0.3
Na Flux Jsm (small intestine mucosa; IR 7 Gy): 5.4 ± 0.4
Na Flux Jms (small intestine mucosa; IR 9 Gy): 4.3 ± 0.7
Na Flux Jnet (small intestine mucosa; IR 9 Gy): −0.4 ± 0.2
Na Flux Jsm (small intestine mucosa; IR 9 Gy): 4.7 ± 0.6

N[C@@H](Cc1c[nH]c2ccccc12)C(=O)O [tryptophan]
survival [2]: prolongs survival
effect of oral administration on small intestine healing, paracellular conductance, electrolyte absorption, survival [2]: improve small intestine healing, reduces paracellular conductance (thereby improving small intestine mucosal barrier mechanism), increases absorption of electrolytes, and/or improves survival in animals

NCC(=O)O [glycine]
survival [2]: prolongs survival
effect of oral administration on small intestine healing, paracellular conductance, electrolyte absorption, survival [2]: improve small intestine healing, reduces paracellular conductance (thereby improving small intestine mucosal barrier mechanism), increases absorption of electrolytes, and/or improves survival in animals

N[C@@H](Cc1ccc(O)cc1)C(=O)O [tyrosine]
survival [2]: prolongs survival
effect of oral administration on small intestine healing, paracellular conductance, electrolyte absorption, survival [2]: improve small intestine healing, reduces paracellular conductance (thereby improving small intestine mucosal barrier mechanism), increases absorption of electrolytes, and/or improves survival in animals

C[C@@H](O)[C@H](N)C(=O)O [threonine]
survival [2]: prolongs survival
effect of oral administration on small intestine healing, paracellular conductance, electrolyte absorption, survival [2]: improve small intestine healing, reduces paracellular conductance (thereby improving small intestine mucosal barrier mechanism), increases absorption of electrolytes, and/or improves survival in animals

N[C@@H](CO)C(=O)O [serine]
survival [2]: prolongs survival
effect of oral administration on small intestine healing, paracellular conductance, electrolyte absorption, survival [2]: improve small intestine healing, reduces paracellular conductance (thereby improving small intestine mucosal barrier mechanism), increases absorption of electrolytes, and/or improves survival in animals

O=C(O)c1cc([N+](=O)[O-])ccc1NCCCc1ccccc1 [NPPB, 5-nitro-2-(3-phenylpropylamino)-benzoic acid]
bumetanide-insensitive Isc after mucosal addition of blocker [3]: 0.1±0.01 μeq·h^−1·cm^−2
forskolin-stimulated HCO3^− secretion after blocker [1]: 0.2±0.01 μeq·h^−1·cm^−2
HCO3^− secretion [1, 4]: 0.2±0.01 μeq·h^−1·cm^−2

COc1ccc(Cl)cc1C(=O)NCCc1ccc(S(=O)(=O)NC(=O)NC2CCCCC2)cc1 [glibenclamide]
bumetanide-insensitive Isc after mucosal addition of blocker [3]: 0.1±0.01 μeq·h^−1·cm^−2
HCO3^− secretion ([1]; 0 Gy + bumetanide, tissues treated with forskolin, 100 μM blocker in lumen solution): 0.5 ± 0.1^ μeq·h^−1·cm^−2
forskolin-stimulated HCO3^− secretion after blocker [1]: 0.1 ± 0.1^ μeq·h^−1·cm^−2
forskolin-stimulated HCO3^− secretion after blocker ([1]; listed as Glibenclamide): 0.1±0.1 μeq·h^−1·cm^−2
HCO3^− secretion ([1]; 0 Gy, blocker in lumen solution (100 μM DIDS or glibenclamide)): 0.5 ± 0.1^ μeq·h^−1·cm^−2
HCO3^− secretion ([1]; 3 Gy + bumetanide, 100 μM blocker in lumen solution): 0.2 ± 0.1^ns μeq·h^−1·cm^−2
HCO3^− secretion [1, 4]: 0.11±0.1 μeq·h^−1·cm^−2 and 0.1 ± 0.1^ns μeq·h^−1·cm^−2

CC(C)[C@H](N)C(=O)O [valine]
survival [2]: prolongs survival
effect of oral administration on small intestine healing, paracellular conductance, electrolyte absorption, survival [2]: improve small intestine healing, reduces paracellular conductance (thereby improving small intestine mucosal barrier mechanism), increases absorption of electrolytes, and/or improves survival in animals

Cl [Cl^−]
Cl Flux Jms (small intestine mucosa; IR 0 Gy): 17.3 ± 1.1
Cl Flux Jnet (small intestine mucosa; IR 0 Gy): 10.2 ± 0.8
Cl Flux Jsm (small intestine mucosa; IR 0 Gy): 7.1 ± 0.6
Cl Flux Jms (small intestine mucosa; IR 1 Gy): 12.8 ± 0.9
Cl Flux Jnet (small intestine mucosa; IR 1 Gy): 5.2 ± 0.9
Cl Flux Jsm (small intestine mucosa; IR 1 Gy): 7.6 ± 1.3
Cl Flux Jms (small intestine mucosa; IR 3 Gy): 16.8 ± 0.7
Cl Flux Jnet (small intestine mucosa; IR 3 Gy): 7.5 ± 0.8
Cl Flux Jsm (small intestine mucosa; IR 3 Gy): 9.3 ± 0.8
Cl Flux Jms (small intestine mucosa; IR 5 Gy): 14.2 ± 1.2
Cl Flux Jnet (small intestine mucosa; IR 5 Gy): 3.9 ± 0.7
Cl Flux Jsm (small intestine mucosa; IR 5 Gy): 10.3 ± 0.9
Cl Flux Jms (small intestine mucosa; IR 7 Gy): 7.1 ± 0.5
Cl Flux Jnet (small intestine mucosa; IR 7 Gy): 0.3 ± 0.2
Cl Flux Jsm (small intestine mucosa; IR 7 Gy): 6.9 ± 0.3
Cl Flux Jms (small intestine mucosa; IR 9 Gy): −9.2 ± 0.8
Cl Flux Jnet (small intestine mucosa; IR 9 Gy): −9.3 ± 0.9
Cl Flux Jsm (small intestine mucosa; IR 9 Gy): 0.1 ± 0.1

CC[C@H](C)[C@H](N)C(=O)O [isoleucine]
survival [2]: prolongs survival
effect of oral administration on small intestine healing, paracellular conductance, electrolyte absorption, survival [2]: improve small intestine healing, reduces paracellular conductance (thereby improving small intestine mucosal barrier mechanism), increases absorption of electrolytes, and/or improves survival in animals
